Literature values, collected in PMC9796293 (British Journal of Clinical Pharmacology, 2022).

Test system: monocytes

Compound: O=C(CCCCCCC(=O)Nc1ccc(CN[C@H](C(=O)OC2CCCC2)c2ccccc2)cc1)NO [tefinostat]
- lowest dose that induced monocyte histone acetylation (Phase I study in cancer patients ref 20): 40 mg
- monocytopaenia (clinical ref 20): not observed
